Laboratory results: ChEMBL document CHEMBL1201862, “PubChem BioAssay data set” (2004)
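Where inhibition never reached the appropriate level, the endpoint shown equals the highest concentration tested. Otherwise, values were interpolated linearly from a five-concentration, 48-hour dose response in 96-well plates. GI50 is the concentration that inhibits growth by half.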 Active and inactive are the calls of the source. No stated cut-off is given here; in the data, active = GI50 up to about 1.1 µM and inactive = higher.

What was measured:
Assay in all cases: NCI anticancer screen, dose series, 48 h
OVCAR-5 = system: OVCAR-5
IGROV-1 = system: IGROV-1
HOP-62 = system: HOP-62
SW-620 = system: SW-620
K562 = system: K562
CAKI-1 = system: CAKI-1
UACC-62 = system: UACC-62
SR = system: SR
A498 = system: A498
SK-OV-3 = system: SK-OV-3
RXF 393 = system: RXF 393
EKVX = system: EKVX
A549 = system: A549
SF-268 = system: SF-268
KM-20L2 = system: KM-20L2
RPMI-8226 = system: RPMI-8226
UO-31 = system: UO-31
OVCAR-3 = system: OVCAR-3
T47D = system: T47D
MDA-MB-435 = system: MDA-MB-435

Measured: GI50

COc1cc(Cl)cc(N(O)C(C)=O)c1OCc1ccccc1
inactive: OVCAR-5 > 100 µM | IGROV-1 > 100 µM | HOP-62 65.6 µM | SW-620 > 100 µM | K562 75.9 µM | CAKI-1 > 100 µM | UACC-62 49.7 µM | SR 44.3 µM | A498 > 100 µM | SK-OV-3 74 µM | RXF 393 > 100 µM | EKVX 30.9 µM | A549 68.5 µM | SF-268 44.8 µM | KM-20L2 83.2 µM | RPMI-8226 96.6 µM | UO-31 51.8 µM | OVCAR-3 74.6 µM

Cc1ccc(NC(=O)C(=O)C2C(=O)NC(=O)NC2=O)c(C)c1
inactive: OVCAR-5 > 100 µM | IGROV-1 > 100 µM | HOP-62 > 100 µM | SW-620 > 100 µM | K562 > 100 µM | CAKI-1 > 100 µM | UACC-62 > 100 µM | SR > 100 µM | A498 > 100 µM | SK-OV-3 > 100 µM | RXF 393 > 100 µM | EKVX > 100 µM | A549 > 100 µM | SF-268 > 100 µM | KM-20L2 > 100 µM | RPMI-8226 > 100 µM | UO-31 > 100 µM | OVCAR-3 > 100 µM

O=c1[nH]cnc2c(COCCO)c[nH]c12
inactive: OVCAR-5 > 100 µM | IGROV-1 > 100 µM | HOP-62 > 100 µM | SW-620 > 100 µM | K562 > 100 µM | CAKI-1 > 100 µM | UACC-62 > 100 µM | SR > 100 µM | A498 > 100 µM | SK-OV-3 > 100 µM | RXF 393 > 100 µM | EKVX > 100 µM | SF-268 > 100 µM | KM-20L2 > 100 µM | RPMI-8226 > 100 µM | UO-31 > 100 µM | OVCAR-3 > 100 µM

CSC(=Nc1nnc(-c2ccc([N+](=O)[O-])cc2)s1)SC
inactive: OVCAR-5 > 100 µM | IGROV-1 27.9 µM | HOP-62 20.1 µM | SW-620 > 100 µM | K562 > 100 µM | CAKI-1 16.7 µM | UACC-62 25.8 µM | SR > 100 µM | A498 31.4 µM | SK-OV-3 27.6 µM | RXF 393 20 µM | EKVX 54.5 µM | T47D 17.8 µM | A549 46.8 µM | SF-268 16.7 µM | KM-20L2 > 100 µM | RPMI-8226 > 100 µM | UO-31 27.9 µM | MDA-MB-435 > 67.1 µM | OVCAR-3 57.3 µM

COC1(C)Cc2c(c(C)c(O)c3c2C(=O)C=C(Cl)C3=O)O1 (stereo not drawn)
inactive: OVCAR-5 > 100 µM | IGROV-1 55.5 µM | HOP-62 > 100 µM | SW-620 19.8 µM | K562 8.75 µM | CAKI-1 20.4 µM | UACC-62 35.8 µM | SR 3.89 µM | A498 > 100 µM | SK-OV-3 > 100 µM | RXF 393 16 µM | EKVX > 100 µM | T47D 13.4 µM | A549 > 100 µM | SF-268 > 88.1 µM | KM-20L2 > 100 µM | RPMI-8226 14.7 µM | UO-31 > 87.3 µM | MDA-MB-435 > 100 µM | OVCAR-3 44.2 µM
